The assay relates to MDA-MB-231 cells. As to the kind of experiment: Cell viability/cell growth, cells re-treated every 48 hours. The assay is classed as cell-based. Particulars: triple negative breast cancer cells. As to the method: MDA-MB-231 cells were plated on a 96-well plate at 10,000 cells per well to evaluate the effects of BSA alone, conjugated DHA-BSA, Liposomal DHA, and a ghost liposome on cell viability. The cells were re-treated every 48 hours. […] All treatments were compared to the cell/media control. The ghost had no effect on cell viability.

Consider `CC/C=C\C/C=C\C/C=C\C/C=C\C/C=C\C/C=C\CCC(=O)O` [DHA, Docosahexanoic acid], for which the “concentration that inhibits cell growth with comparable effect” value lay in the range of 25 to 50 µM.

For the origin of these results see US10272041B2, “Acid stable liposomal compositions and methods for producing the same” (The Penn State Research Foundation, priority 2013, dated 2019).
